Like-named read-outs stand apart in the source and are kept apart here.

Data set [1] in a line: Liver microsome metabolism assay. The note with it: CD1, mouse, liver microsomes.
Method: Experimental Materials: Mixed CD1 mouse liver microsomal enzyme protein was purchased from Xenotech (#M1000), and NADPH was purchased from Abmole (#M9076).
1. To the liver microsomal enzyme reaction system, 210 μL of phosphate buffer was added, followed by 12.5 μL of liver microsomal enzyme at a concentration of 20 mg/mL. Then, 25 μL of NADPH at a concentration of 10 mM was added to the system, mixed well, and incubated in a 37° C. water bath with shaking for 10 minutes.
2. The test compound, stored at a concentration of 10 mM, was diluted to 100 μM with DMSO. Then, 2.5 μL of the diluted test compound was added to the reaction system, mixed well, and incubated in a 37° C. water bath with shaking.
3. At 0.5, 5, 10, 20, 30, and 60 minutes, 25 μL of the enzyme reaction mixture was taken and added to 125 μL of cold acetonitrile containing dexamethasone as an internal standard. The mixture was centrifuged at 4000 g for 20 minutes, and the supernatant was mixed with an equal volume of distilled water. The mixed sample was then subjected to quantitative analysis by liquid chromatography-mass spectrometry.
4. Calculation of in vitro drug metabolism half-life and drug clearance rate:
t1/2=−0.693/k. (k: the slope of the linear regression of the natural logarithm of the percentage of drug remaining versus incubation time).
Data set [2] deals with UWB1.289 ovarian cancer cells. In words: Cell proliferation assay, UWB1.289. Type of data set: cell-based. The note with it: UWB1289, 168 h, read-out: UWB1.289 Cell IC50. On the procedure: (§1) Experimental Materials: MDA-MB-436 or UWB1.289 cell lines were purchased from Cobioer Biosciences Co. Ltd. (Nanjing, China). The STR identification results were a complete match, and mycoplasma testing was negative. MDA-MB-436 cells were cultured in DMEM complete medium containing 10% fetal bovine serum, 1% penicillin-streptomycin, 1% insulin, and 16 μg/mL glutathione; UWB1.289 cells were cultured in RMPI1640 complete medium containing 10% fetal bovine serum and 1% penicillin-streptomycin.
(§2) 1. MDA-MB-436 or UWB1.289 cells were cultured in the aforementioned medium (culture conditions: 37° C., 5.0% CO2 in air) until they reached the logarithmic growth phase. The cells were then digested with trypsin containing 0.25% EDTA, centrifuged at 1000 rpm, and the supernatant was discarded. Cell culture medium was added, and the cell suspension was adjusted to 2×10^4/mL after counting. 135 μL of the cell suspension per well was taken and cultured in a 96-well cell culture plate for 16 hours (culture conditions: 37° C., 5.0% CO2 in air).
(§3) 2. The test compounds, stored at a concentration of 10 mM, were diluted 2.5 times with DMSO and then serially diluted in a 1:3 gradient (9 gradients). The gradient-diluted samples were further diluted 40 times with serum-free medium, and 15 μL of each was added to the 96-well cell culture plate. The positive control group received serum-free medium containing the same concentration of DMSO, and the negative control group received medium without cells. The cells were then cultured for an additional 7 days.
(§4) 3. After the culture period, the cell culture plate was placed at room temperature for 30 minutes. Then, 100 μL of CellCounting-Lite 2.0 reagent (Vazyme, #DD1101) was added to each well, mixed thoroughly, and incubated in the dark at room temperature for 10 minutes. The luminescence signal was read using a Synergy HTX multi-mode reader.
(§5) 4. Data analysis was performed using GraphPad Prism 8.0 software. The inhibition rate (%) was calculated as 100*(average luminescence signal of the positive control group−luminescence signal of the compound)/(average luminescence signal of the positive control group−average luminescence signal of the negative control group). The IC50 value was obtained by plotting the logarithm of the compound concentration against the percentage inhibition rate.

The nature of data set [3]: Evaluation of pharmacokinetics in mice. The note with it: male, ICR (CD1), mouse, plasma, po, 10 mg/kg.
Data set [4] deals with T1, PARP1 (Homo sapiens (Human), UniProt P09874). In words: PARP1 trapping assay. The data set is classed as biochemical. To be noted: read-out: Inhibitory Effect on PARP1 Trapping IC50. On the procedure:
[table] […] 1. A 4× enzyme reaction mixture, comprising PARP1, PARP2, and GST-Tb antibody, was prepared with the buffer and 4 μL of the enzyme reaction mixture was added to a 384-well plate. 2. A 4×PARP1 and PARP2 probe reaction mixture was prepared with the buffer and 4 μL of the probe reaction mixture was added to the 384-well plate. 3. A series of gradient-diluted compounds were prepared and 4 μL of the diluted compounds were added to the 384-well plate, and incubated at room temperature for 45 minutes. 4. After incubation, 4 μL of 4×NAD reaction mixture was added to the 384-well plate and incubated at room temperature for 10 minutes. 5. After incubation, the plate was read using a plate reader. 6. Data Analysis: The percentage inhibition rate was calculated as follows: Inhibition Rate (%)=(Reading of Compound Group−Reading of Blank Group)/(Reading of Vehicle Control Group−Reading of Blank Group).

In data set [5] the test system is MDA-MB-436 breast cancer cells. The data set can be described thus: Cell proliferation assay, MDA-MB-436. The data set is classed as cell-based. The note with it: Homo sapiens, MDA-MB-436, 168 h, read-out: MDA-MB-436 Cell IC50. As to the method:
as §1, §2, §3, §4, §5

The target of data set [6] is T1, PARP1. In words: PARP enzyme activity assay (PARP1 chemiluminescent assay kit). Type of data set: biochemical. The note with it: enzyme inhibitory activity, read-out: PARP-1 IC50. An excerpt:
Experimental Materials: The PARP1 assay kit was purchased from BPS Bioscience, USA, specifically the 384-well chemiluminescent assay kit (Catalog No.: #80551).
Experimental Principle: PARP can catalyze the transfer of ADP-ribose residues from NAD+ to target substrates, thereby modifying proteins through ribosylation. This experiment measures PARP1 enzyme activity by detecting the poly(ADP-ribosylation) of histones by PARP1.
Preparation of Reagents and Test Compounds: The 10× assay buffer included in the kit was diluted to 1× with distilled water. The test compound (stock concentration of 10 mM) was diluted to 10 μM with a DMSO solution and then serially diluted in a 1:3 ratio. The serially diluted compounds were further diluted 10-fold with the 1× assay buffer.
Experimental Method: The procedure was carried out according to the kit's instructions:
1. The 5× histone mixture was diluted to 1× with PBS, and 25 μL was added to each well of a 384-well plate, incubating overnight at 4° C.
2. After incubation, 100 μL of PBST (0.05% Tween 20) was added to each well for washing, repeated three times. Then, 100 μL of blocking solution was added to each well and incubated at room temperature for 90 minutes.
3. After incubation, the wells were washed three times with PBST, and then 1.25 μL of 10× assay buffer, 1.25 μL of 10×PARP assay mixture, 2.5 μL of activation DNA (5×), and 7.5 μL of distilled water were added to each well.
4. […] The positive control group and the negative control group were added with 1× assay buffer containing the same concentration of DMSO.
5. Next, 10 μL of 2.5 ng/μL PARP1 enzyme was added to the test compound and positive control groups, while 10 μL of 1× assay buffer was added to the negative control group, and the mixture was incubated at room temperature for 60 minutes.
6. Streptavidin-HRP was diluted 1:50 with the blocking solution. After incubation, the plate was washed three times with PBST, and 25 μL of the diluted streptavidin-HRP solution was added to each well, incubating at room temperature for 30 minutes.
7. After incubation, the plate was washed three times with PBST, and 50 μL of the mixed substrate A and substrate B in equal volumes was added. The luminescence signal was immediately read on a Synergy HTX multi-mode reader.
8. Data analysis was performed using GraphPad Prism 8.0 software. The inhibition rate %=100*(average luminescence signal of the positive control group−luminescence signal of the compound)/(average luminescence signal of the positive control group−average luminescence signal of the negative control group). The IC50 value was obtained by plotting the logarithm of the compound concentration against the percentage inhibition rate.

T1 sequence (P09874 whole entry): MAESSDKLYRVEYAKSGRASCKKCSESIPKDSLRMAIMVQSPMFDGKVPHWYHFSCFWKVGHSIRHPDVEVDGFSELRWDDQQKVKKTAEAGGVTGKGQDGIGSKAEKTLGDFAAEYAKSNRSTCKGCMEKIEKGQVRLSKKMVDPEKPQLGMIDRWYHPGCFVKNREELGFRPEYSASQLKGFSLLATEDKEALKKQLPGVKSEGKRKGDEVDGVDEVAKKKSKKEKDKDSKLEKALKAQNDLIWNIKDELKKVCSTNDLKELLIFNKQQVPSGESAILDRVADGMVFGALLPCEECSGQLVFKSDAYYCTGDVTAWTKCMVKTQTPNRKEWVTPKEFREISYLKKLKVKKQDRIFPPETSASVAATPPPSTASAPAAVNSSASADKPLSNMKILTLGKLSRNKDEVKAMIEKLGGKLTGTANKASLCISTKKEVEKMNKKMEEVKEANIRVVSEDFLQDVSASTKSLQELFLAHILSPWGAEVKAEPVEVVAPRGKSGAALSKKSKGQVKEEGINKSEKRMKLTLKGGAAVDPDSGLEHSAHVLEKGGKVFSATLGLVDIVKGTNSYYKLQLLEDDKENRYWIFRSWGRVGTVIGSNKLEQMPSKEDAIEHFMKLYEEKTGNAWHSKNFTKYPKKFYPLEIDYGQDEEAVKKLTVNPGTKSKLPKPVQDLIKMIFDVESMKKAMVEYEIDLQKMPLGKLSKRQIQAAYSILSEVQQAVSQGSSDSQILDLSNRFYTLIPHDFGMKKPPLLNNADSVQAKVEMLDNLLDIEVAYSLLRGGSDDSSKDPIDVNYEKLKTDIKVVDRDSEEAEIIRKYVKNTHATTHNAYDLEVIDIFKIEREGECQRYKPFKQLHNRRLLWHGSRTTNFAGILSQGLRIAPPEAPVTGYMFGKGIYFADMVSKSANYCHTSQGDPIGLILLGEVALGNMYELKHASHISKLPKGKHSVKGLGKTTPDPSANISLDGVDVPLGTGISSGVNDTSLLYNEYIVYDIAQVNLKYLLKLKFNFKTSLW

As for `Cc1c(C(F)(F)F)c(=O)[nH]c2cc(CN3CCN(c4cc5c(cn4)C(=O)N(C)C5)CC3)cnc12` [Compound 84, 4-methyl-7-((4-(2-methyl-3-oxo-2,3-dihydro-1H-pyrrolo[3,4-c]pyridin-6-yl)piperazin-1-yl)methyl)-3-(trifluoromethyl)-1,5-naphthyridin-2(1H)-one], the microsomal CLint at 1 µM in data set [1] is 0.72 µL/min/mg.

Consider `CNC(=O)c1ccc(C2CCN(Cc3cnc4c(C)c(C(F)(F)F)c(=O)[nH]c4c3)CC2)cn1` [Compound 71, N-methyl-5-(1-((8-methyl-6-oxo-7-(trifluoromethyl)-5,6-dihydro-1,5-naphthyridin-3-yl)methyl)piperidin-4-yl)picolinamide], for which the IC50 in data set [2] (proliferation, 7 days) amounted to 8.13 nM.

As to `CNC(=O)c1ccc(N2CCN(Cc3cnc4c(C)c(C(F)(F)F)c(=O)[nH]c4c3)CC2)c(F)n1` [Compound 93, 6-fluoro-N-methyl-5-(4-((8-methyl-6-oxo-7-(trifluoromethyl)-5,6-dihydro-1,5-naphthyridin-3-yl)methyl)piperazin-1-yl)picolinamide], in data set [3], the AUC(0-inf) worked out at 796 µg·h/mL, the highest level (Cmax) was 31900 ng/mL and the half-life was 18.4 h. Also, the IC50 in data set [2] was 2.67 nM. In addition, the IC50 at PARP1 [4] came to 1.32 nM. The IC50 in data set [5] was 0.83 nM.

Take `CNC(=O)c1ccc(N2CCN(Cc3cnc4c(C)c(C(F)(F)F)c(=O)[nH]c4c3)C(COC)C2)cn1` (stereo not shown) [Compound 8, 5-(3-(methoxymethyl)-4-((8-methyl-6-oxo-7-(trifluoromethyl)-5,6-dihydro-1,5-naphthyridin-3-yl)methyl)piperazin-1-yl)-N-methylpicolinamide]: the IC50 on PARP1 [6] stood at 2.55 nM; in data set [2] (proliferation, 7 days) it was 12.6 nM.

Regarding `CNC(=O)c1ccc(N2CCN(Cc3cnc4c(C)c(C(F)(F)F)c(=O)[nH]c4c3)C(C)C2)cn1` (stereo not shown) [Compound 11, N-methyl-5-(3-methyl-4-((8-methyl-6-oxo-7-(trifluoromethyl)-5,6-dihydro-1,5-naphthyridin-3-yl)methyl)piperazin-1-yl)picolinamide], on PARP1 [6], the IC50 was determined as 0.96 nM. In data set [3], the AUC(0-inf) was determined as 1500 µg·h/mL, the peak level (Cmax) was 55900 ng/mL and the half-life is 18.9 h. Moreover, the IC50 in data set [2] (proliferation, 7 days) is 28.5 nM.

As to `CNC(=O)c1ccc(N2CCN(Cc3cnc4c(C)c(C(F)(F)F)c(=O)[nH]c4c3)CC2C)cn1` (stereo not shown) [Compound 10, N-methyl-5-(2-methyl-4-((8-methyl-6-oxo-7-(trifluoromethyl)-5,6-dihydro-1,5-naphthyridin-3-yl)methyl)piperazin-1-yl)picolinamide], the IC50 came to 2.79 nM at PARP1 [6] and 15 nM in data set [2] (proliferation, 7 days).

For the compound `CNC(=O)c1ccc(N2CCN(Cc3cnc4c(C)c(C(F)(F)F)c(=O)[nH]c4c3)C[C@@H]2C)cn1` [Compound 53, (S)—N-methyl-5-(2-methyl-4-((8-methyl-6-oxo-7-(trifluoromethyl)-5,6-dihydro-1,5-naphthyridin-3-yl)methyl)piperazin-1-yl)picolinamide], the half-maximal inhibitory concentration (IC50) in data set [2] (proliferation, 7 days) stood at 13.6 nM.

In the case of `CNS(=O)(=O)c1ccc(N2CCN(Cc3cnc4c(C)c(C(F)(F)F)c(=O)[nH]c4c3)CC2)cc1` [Compound 13, N-methyl-4-(4-((8-methyl-6-oxo-7-(trifluoromethyl)-5,6-dihydro-1,5-naphthyridin-3-yl)methyl)piperazin-1-yl)benzenesulfonamide], on PARP1 [6], the IC50 stood at 7.37 nM.

For `CNC(=O)c1ccc(N2CCN(Cc3cnc4c(C)c(C(F)F)c(=O)[nH]c4c3)CC2)cn1` [Compound 100, 5-(4-((7-(difluoromethyl)-8-methyl-6-oxo-5,6-dihydro-1,5-naphthyridin-3-yl)methyl)piperazin-1-yl)-N-methylpicolinamide], the figures for the IC50 (on PARP1 [4]; in data set [5]) were 2.58 nM and 2.05 nM, respectively.

In the case of `Cc1c(C(F)(F)F)c(=O)[nH]c2cc(CN3CCN(c4ccc5[nH]c(=O)[nH]c5n4)CC3)cnc12` [Compound 18, 4-methyl-7-((4-(2-oxo-2,3-dihydro-1H-imidazo[4,5-b]pyridin-5-yl)piperazin-1-yl)methyl)-3-(trifluoromethyl)-1,5-naphthyridin-2(1H)-one], on PARP1 [6], the IC50 is 15.9 nM.

Turning to `Cc1c(C(F)(F)F)c(=O)[nH]c2cc(CN3CCN(c4ccc(C(=O)NC5CC5)nc4)CC3)cnc12` [Compound 99, N-cyclopropyl-5-(4-((8-methyl-6-oxo-7-(trifluoromethyl)-5,6-dihydro-1,5-naphthyridin-3-yl)methyl)piperazin-1-yl)picolinamide], the IC50 on PARP1 [4] worked out at 1.53 nM; in data set [5] (proliferation, 7 days), 1.69 nM.

Take `Cc1c(C(F)(F)F)c(=O)[nH]c2cc(CN3CCN(c4ccc(C#N)cn4)CC3)cnc12` [Compound 20, 6-(4-((8-methyl-6-oxo-7-(trifluoromethyl)-5,6-dihydro-1,5-naphthyridin-3-yl)methyl)piperazin-1-yl)nicotinonitrile]: the IC50 was 1.26 nM on PARP1 [6] and 26.6 nM in data set [2] (proliferation, 7 days).

On to `CNC(=O)c1ccc(N2CCN(Cc3cnc4c(C)c(C(F)(F)F)c(=O)[nH]c4c3)C(CO)C2)cn1` (stereo not shown) [Compound 6, 5-(3-(hydroxymethyl)-4-((8-methyl-6-oxo-7-(trifluoromethyl)-5,6-dihydro-1,5-naphthyridin-3-yl)methyl)piperazin-1-yl)-N-methylpicolinamide], for which the IC50 at PARP1 [6] was determined as 34.3 nM.

Regarding `CNC(=O)c1ccc(N2CC3CCC(C2)N3Cc2cnc3c(C)c(C(F)(F)F)c(=O)[nH]c3c2)cn1` [Compound 12, N-methyl-5-(8-((8-methyl-6-oxo-7-(trifluoromethyl)-5,6-dihydro-1,5-naphthyridin-3-yl)methyl)-3,8-diazabicyclo[3.2.1]octan-3-yl)picolinamide], the IC50 at PARP1 [6] was found to be 2.25 nM.

By microsomal CLint is commonly meant the capacity of the preparation to metabolise the compound, expressed as a volume cleared per time. Read a high microsomal CLint as rapid turnover. The IC50 is the concentration needed to halve the response being measured. By AUC(0-inf) is commonly meant total exposure, with the tail of the curve extrapolated. One may read the Cmax as the maximum level reached in the sampled fluid or tissue. As usually defined, the half-life is the time needed for the level to fall by half in the phase considered. A low value points to fast loss.
